Data as given in BindingDB's records for doi:10.1021/jm9805384 (Agouron Pharmaceuticals, 1999).

Assay: Increased percentage of formazan production in drug treated virus infected cells to equal 50% control drug free uninfected cells on serotype 14

Row | Structure (SMILES) | EC50 [µM]
1 | CCOC(=O)/C=C/[C@H](CN1CCNC1=O)NC(=O)[C@H](Cc1ccccc1)NC(=O)[C@H](CC(C)C)NC(=O)OCc1ccccc1 [(E)-(R)-4-[(S)-2-((S)-2-Benzyloxycarbonylamino-4-methyl-pentanoylamino)-3-phenyl-propionylamino]-5-(2-oxo-imidazolidin-1-yl)-pent-2-enoic acid ethyl ester] | 0.6
2 | CCOC(=O)/C=C/[C@H](CCC(=O)N(C)C)NC(=O)[C@H](Cc1ccccc1)NC(=O)[C@H](CC(C)C)NC(=O)OCc1ccccc1 [(E)-(S)-4-[(S)-2-((S)-2-Benzyloxycarbonylamino-4-methyl-pentanoylamino)-3-phenyl-propionylamino]-6-dimethylcarbamoyl-hex-2-enoic acid ethyl ester] | 4
3 | CCOC(=O)/C=C/[C@H](CCC(=O)NC)NC(=O)[C@H](Cc1ccccc1)NC(=O)[C@H](CC(C)C)NC(=O)OCc1ccccc1 [(E)-(S)-4-[(S)-2-((S)-2-Benzyloxycarbonylamino-4-methyl-pentanoylamino)-3-phenyl-propionylamino]-6-methylcarbamoyl-hex-2-enoic acid ethyl ester] | 5.6
4 | CCOC(=O)/C=C/[C@H](C[C@@H]1CCNC1=O)NC(=O)[C@H](Cc1ccccc1)NC(=O)[C@@H](NC(=O)OCc1ccccc1)C(C)C [ethyl (2E,4S)-4-[(2S)-2-[(2S)-2-{[(benzyloxy)carbonyl]amino}-3-methylbutanamido]-3-phenylpropanamido]-5-[(3S)-2-oxopyrrolidin-3-yl]pent-2-enoate] | 0.03

The next lines start with the values.

Row | EC50 [µM] | Structure (SMILES)
5 | 0.02 | CCOC(=O)/C=C/[C@H](C[C@@H]1CCCNC1=O)NC(=O)[C@H](Cc1ccc(F)cc1)NC(=O)[C@@H](NC(=O)c1cc(C)on1)C(C)C [(E)-(S)-4-((S)-3-(4-Fluoro-phenyl)-2-{(S)-3-methyl-2-[(5-methyl-isoxazole-3-carbonyl)-amino]-butyrylamino}-propionylamino)-5-((S)-2-oxo-piperidin-3-yl)-pent-2-enoic acid ethyl ester]
6 | 0.03 | CCOC(=O)/C=C/[C@H](C[C@@H]1CCCNC1=O)NC(=O)[C@H](Cc1ccccc1)NC(=O)[C@H](CC(C)C)NC(=O)OCc1ccccc1 [(E)-(S)-4-[(S)-2-((S)-2-Benzyloxycarbonylamino-4-methyl-pentanoylamino)-3-phenyl-propionylamino]-5-((S)-2-oxo-piperidin-3-yl)-pent-2-enoic acid ethyl ester]
7 | 0.01 | CCOC(=O)/C=C/[C@H](C[C@@H]1CCNC1=O)NC(=O)[C@H](Cc1ccc(F)cc1)NC(=O)[C@@H](NC(=O)c1cc(C)on1)C(C)(C)C [(E)-(S)-4-[(S)-2-{(S)-3,3-Dimethyl-2-[(5-methyl-isoxazole-3-carbonyl)-amino]-butyrylamino}-3-(4-fluoro-phenyl)-propionylamino]-5-((S)-2-oxo-pyrrolidin-3-yl)-pent-2-enoic acid ethyl ester]
8 | 0.001 | CCOC(=O)/C=C/[C@H](C[C@@H]1CCCNC1=O)NC(=O)[C@@H](CC(=O)[C@@H](NC(=O)c1cc(C)on1)C(C)C)Cc1ccc(F)cc1 [(E)-(S)-4-{(2R,5S)-2-(4-Fluoro-benzyl)-6-methyl-5-[(5-methyl-isoxazole-3-carbonyl)-amino]-4-oxo-heptanoylamino}-5-((S)-2-oxo-piperidin-3-yl)-pent-2-enoic acid ethyl ester]
9 | 0.01 | CCOC(=O)/C=C/[C@H](C[C@@H]1CCNC1=O)NC(=O)[C@H](Cc1ccc(F)cc1)NC(=O)[C@@H](NC(=O)c1cc(C)on1)C(C)C [AG7088 analogue 2a]

Assay: The EC50 was calculated as the concentration of drug that increased the percentage of formazan production in drug treated, virus infected cells to 50% of that produced by drug free uninfected cells on serotype 2.

Row | EC50 [µM] | Structure (SMILES)
10 | 1.6 | CCOC(=O)/C=C/[C@H](CCC(N)=O)NC(=O)[C@H](Cc1ccccc1)NC(=O)[C@H](CC(C)C)NC(=O)OCc1ccccc1 [(E)-(S)-4-[(S)-2-((S)-2-Benzyloxycarbonylamino-4-methyl-pentanoylamino)-3-phenyl-propionylamino]-6-carbamoyl-hex-2-enoic acid ethyl ester]
